For series [1], the system named is H1703 cells. Description: Cell Titer-Glo cell viability assay, H1703 NSCLC cells. Format: cell-based, Human. Particulars: for cells killed: viability 72 hr later. Here is the method: Cells were maintained at 37° C., 5% CO2 atmosphere.
[…] […] Viability was assessed 72 hr later.
Combination Index (CI) was then determined using the median effect analysis software CalcuSyn 2.0 (CalcuSyn, Inc.). A Combination Index greater than 1, equal to 1 or less than 1 indicates antagonism, additivity and synergism, respectively.
For orientation: In ATP-based viability assays light output follows the ATP content of the culture.

The subject of series [2] is H1838 cells. Description: Cell viability assay, H1838 NSCLC cells. The class given is cell-based, Human. The note with it: bortezomib day 1, compound 1 day 2; 72 hours after compound 1 exposure (FIG. 6).
Method: Human H1703, H1975, H1838 NSCLC cells, U266 multiple myeloma cells, HCT116 colon cancer cells and Detroit562 head and neck cancer cells were purchased from the American Type Culture Collection (Manassas, Va.). H1975, H1703, H1838 and U266 cells were grow in RPMI media, HCT116 cells were grown in McCoy's media and Detroit562 cells were grown in MEM. Fetal bovine serum (10%) was added to all media, along with 2 mM L-glutamine and antibiotics (100 IU/ml penicillin and 100 μg/ml streptomycin) purchased from Sigma Aldrich. Cells were maintained at 37° C., 5% CO2 atmosphere.
Cell viability was measured using the Cell Titer-Glo assay (Promega). In brief, cells were plated in 96-well plates in triplicate at optimal seeding density (determined empirically for each cell line) and incubated at 37° C., 5% CO2 atmosphere for 24 hr prior to the addition of drug or vehicle (0.3% DMSO) to the culture medium. At the end of the assay, Cell Titer-Glow was added to the wells per manufactures recommendation, shaken for two minutes and incubated for 10 minutes at room temperature. Luminescence (0.1 sec) was measured with a Victor II microplate reader (Perkin Elmer) and the resulting data were used to calculate cell viability, normalized to vehicle control.
Series [3] can be described thus: Phase 1 clinical investigations, intravenous Compound 1. Format: in vivo, human. The source says:
Compound 1 was advanced into phase 1 clinical investigations studying patients with refractory hematologic malignancies using two intravenous schedules of administration: weekly for 3 out of every 4 weeks and twice weekly without breaks dosing by one-hour infusion.

Where [4] appears, read: bortezomib day 1, compound 1 Day 2, 72 hours after compound 1 exposure (FIG. 4).
Where [5] appears, read: concurrent, one hour on both days 1 and 2, 72 hours after final drug exposure (FIG. 5).

With `CC(C)C[C@H](NC(=O)[C@H](Cc1ccccc1)NC(=O)c1cnccn1)B(O)O` [bortezomib, reference compound], the cells killed is 15% in series [1] (bortezomib alone 22 nM, 1 hr exposure Day 1 and Day 2); 25% in series [1] (bortezomib on its own 15 nM, 8 hr pulse Day 1, washout). For the same molecule, the “cell death by microscopy” value in series [1] (setting [4]), in series [1] (setting [5]) and in series [2] was “weak activity” in each case.

For the molecule `CC(C)c1cc(-c2nnc(O)n2-c2ccc3c(ccn3C)c2)c(O)cc1O` [compound 1, 3-(2,4-dihydroxy-5-isopropyl-phenyl)-4-(1-methyl-indol-5-yl)-5-hydroxy-[1,2,4] triazole], the “cell death by microscopy” value in series [1] (setting [4]), in series [1] (setting [5]) and in series [2] was “weak activity” throughout. The cells killed is listed as 10% in series [1] (compound 1 alone 50 nM, 8 hr pulse, washout); 15% in series [1] (compound 1 alone 74 nM, 1 hr exposure Day 1 and Day 2). For the same molecule, the “efficacy signals, hematologic malignancies” value in series [3] (phase 1 AML and CML patients) was “declines in peripheral and bone marrow blasts”. In addition, the “cardiac effects following the infusion” value in series [3] (phase 1 patients) is “Moderate tachycardia and PR interval prolongation”. Moreover, in series [3] (phase 1 patients), the “efficacy signals, solid tumors” value was “partial responses in colorectal cancer and melanoma”. Besides, in series [3] (phase 1 patients), the “patients with Grade 1-2 infusional reactions” value is 5%. Further, in series [3] (phase 1 patients, unlike geldanamycin-based HSP90 inhibitors), the severe hepatotoxicity entry is “has not been observed”. For the same molecule, the dose limiting toxicities result in series [3] (phase 1 program, solid tumors and refractory hematologic malignancies, one-hour infusion) is “reversible fatigue and diarrhea”.

The record behind these values is patent US20130331357A1, “COMBINATION THERAPY OF HSP90 INHIBITORY COMPOUNDS WITH PROTEASOME INHIBITORS” (SYNTA PHARMACEUTICALS CORP., priority 2011, published 2013).
